# Data published in patent US20230183237A1, “COMPETITIVE AND NONCOMPETITIVE INHIBITORS OF THE MUSCARINIC ACETYLCHOLINE RECEPTOR M5” (Vanderbilt University, priority 2020, published 2023).
# pIC50: −log10 of the molar value.
# Target: T1, hM5 (Homo sapiens, UniProt P08912)
# T1 construct: expressed in transfected cells
# T1 sequence (P08912 1-532): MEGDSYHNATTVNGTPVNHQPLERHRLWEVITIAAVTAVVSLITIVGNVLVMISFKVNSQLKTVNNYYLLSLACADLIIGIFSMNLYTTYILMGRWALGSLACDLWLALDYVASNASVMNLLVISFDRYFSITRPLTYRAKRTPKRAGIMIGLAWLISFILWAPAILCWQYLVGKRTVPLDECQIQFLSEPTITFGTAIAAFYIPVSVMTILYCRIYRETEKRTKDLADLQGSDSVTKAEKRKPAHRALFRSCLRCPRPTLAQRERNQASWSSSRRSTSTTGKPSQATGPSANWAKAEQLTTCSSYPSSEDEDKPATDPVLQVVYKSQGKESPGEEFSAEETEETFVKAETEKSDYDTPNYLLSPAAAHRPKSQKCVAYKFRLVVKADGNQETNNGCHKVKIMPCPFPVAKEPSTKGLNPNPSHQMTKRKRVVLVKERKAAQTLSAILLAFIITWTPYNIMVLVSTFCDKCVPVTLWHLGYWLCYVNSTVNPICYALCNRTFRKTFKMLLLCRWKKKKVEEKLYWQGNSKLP
# Assay: Calcium mobilization concentration-response (IC50 vs EC80 acetylcholine), CHO hM5
# Format: cell-based
# Details: CELL LINE hM5; calcium mobilization, EC80 acetylcholine addition; read-out: IC50
# Procedure, shortened: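 CHO cells stably expressing hM5, dye-loaded, in HBSS/20 mM HEPES/2.5 mM probenecid, pH 7.4. Compounds were pre-incubated 140 s before an EC80 acetylcholine challenge, with calcium flux read kinetically.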
row,SMILES,pIC50
1,"Cc1cc(C2CCN(S(=O)(=O)c3cnn(C)c3C)CC2)cn2ncnc12 [Compound 199, 6-(1-((1,5-dimethyl-1H-pyrazol-4-yl)sulfonyl)piperidin-4-yl)-8-methyl-[1,2,4]triazolo[1,5-a]pyridine]",< 5.00
2,"Cc1ccncc1C1CCN(S(=O)(=O)c2cnn3c2OCCC3)CC1 [Compound 386, 3-((4-(4-methylpyridin-3-yl)piperidin-1-yl)sulfonyl)-6,7-dihydro-5H7-pyrazolo[5,1-b][1,3]oxazine]",5.34
3,"Cc1nc2cc(C)c(C3CCN(S(=O)(=O)c4ccc5c(c4)CCO5)CC3)cn2n1 [Compound 76, 6-(1-((2,3-dihydrobenzofuran-5-yl)sulfonyl)piperidin-4-yl)-2,7-dimethyl-[1,2,4]triazolo[1,5-a]pyridine]",< 5.00
4,"Cc1cc(C#N)ncc1C1=CCN(S(=O)(=O)c2cnn(C)c2C)CC1 [Compound 239, 1′-((1,5-dimethyl-1H-pyrazol-4-yl)sulfonyl)-4-methyl-1′,2′,3′,6′-tetrahydro-[3,4′-bipyridine]-6-carbonitrile]",< 5.00
5,"O=S(=O)(c1ccc2c(c1)CCO2)N1CCC(c2ccc3occc3n2)CC1 [Compound 28, 5-(1-((2,3-dihydrobenzofuran-5-yl)sulfonyl)piperidin-4-yl)furo[3,2-b]pyridine]",< 5.00
6,"Cc1cc2nccn2nc1N1CCN(S(=O)(=O)c2ccc3c(c2)CCO3)CC1 [Compound 36, 6-(4-((2,3-Dihydrobenzofuran-5-yl)sulfonyl)piperazin-1-yl)-7-methylimidazo[1,2-b]pyridazine]",5.40
7,"COc1cc2ncnn2cc1C1CCN(S(=O)(=O)c2ccc3ncsc3c2)CC1 [Compound 82, 6-((4-(7-methoxy-[1,2,4]triazolo[1,5-a]pyridin-6-yl)piperidin-1-yl)sulfonyl)benzo[d]thiazole]",< 5.00
8,"COc1cc(C2CCN(S(=O)(=O)c3cc4c(cc3F)OCC4)CC2)cn2ncnc12 [Compound 115, 6-(1-((6-fluoro-2,3-dihydrobenzofuran-5-yl)sulfonyl)piperidin-4-yl)-8-methoxy-[1,2,4]triazolo[1,5-a]pyridine]",< 5.00
9,"O=S(=O)(c1ccc2ncsc2c1)N1CCC(c2nc3cccnc3s2)CC1 [Compound 11, 2-(1-(benzo[d]thiazol-6-ylsulfonyl)piperidin-4-yl)thiazolo[5,4-b]pyridine]",< 5.00
10,"Cc1cc2nccn2nc1C1CCN(S(=O)(=O)c2c(C)nn(C)c2Cl)CC1 [Compound 248, 6-(1-((5-chloro-1,3-dimethyl-1-pyrazol-4-yl)sulfonyl)piperidin-4-yl)-7-methylimidazo[1,2-b]pyridazine]",7.16
11,"Cn1ncc(S(=O)(=O)N2CCC(c3cn4ncnc4cc3Cl)CC2)c1C(F)(F)F [Compound 330, 7-chloro-6-(1-((1-methyl-5-(trifluoromethyl)-1H-pyrazol-4-yl)sulfonyl)piperidin-4-yl)-[1,2,4]triazolo[1,5-a]pyridine]",7.28
12,"Cc1c(S(=O)(=O)N2CC=C(c3cn4ncnc4cc3C3CC3)CC2)cnn1C [Compound 148, 7-cyclopropyl-6-(1-((1,5-dimethyl-1H-pyrazol-4-yl)sulfonyl)-1,2,3,6-tetrahydropyridin-4-yl)-[1,2,4]triazolo[1,5-a]pyridine]",6.10
13,"O=S(=O)(c1ccc(Cl)nc1)N1CCC(c2cn3ncnc3cc2C(F)(F)F)CC1 [Compound 112, 6-(1-((6-chloropyridin-3-yl)sulfonyl)piperidin-4-yl)-7-(trifluoromethyl)-[1,2,4]triazolo[1,5-a]pyridine]",< 5.00
14,"Cc1ncc(S(=O)(=O)N2CCC(c3cn4ncnc4cc3C(F)(F)F)CC2)n1C [Compound 277, 6-(1-((1,2-dimethyl-1H-imidazol-5-yl)sulfonyl)piperidin-4-yl)-7-(trifluoromethyl)-[1,2,4]triazolo[1,5-a]pyridine]",6.63
15,"Cc1cc2ncnn2cc1C1CCN(S(=O)(=O)c2cnc3n2CCCC3)CC1 [Compound 322, 7-methyl-6-(1-((5,6,7,8-tetrahydroimidazo[1,2-a]pyridin-3-yl)sulfonyl)piperidin-4-yl)-[1,2,4]triazolo[1,5-a]pyridine]",8.01
16,"O=S(=O)(c1ccc2ncccc2c1)N1CCC(c2cc3cc[nH]c3cn2)CC1 [Compound 26, 6-((4-(1H-pyrrolo[2,3-c]pyridin-5-yl)piperidin-1-yl)sulfonyl)quinoline]",< 5.00
17,"COc1ccc(S(=O)(=O)N2CCC(c3nn4ccnc4cc3C)CC2)cn1 [Compound 42, 6-(1-((6-methoxypyridin-3-yl)sulfonyl)piperidin-4-yl)-7-methylimidazo[1,2-b]pyridazine]",< 5.00

# Same assay, conditions: CELL LINE hM5; vs EC80 acetylcholine; read-out: IC50
row,SMILES,pIC50
1,"Cc1cc2nccn2cc1C1CCN(S(=O)(=O)c2cnn(C)c2Cl)CC1 [Compound 581, 6-(1-((5-chloro-1-methyl-1H-pyrazol-4-yl)sulfonyl)piperidin-4-yl)-7-methylimidazo[1,2-a]pyridine]",7.60
2,"Cc1cc2ncnn2cc1C1(F)CCN(S(=O)(=O)c2cnn(C)c2C#N)CC1 [Compound 462, 4-((4-fluoro-4-(7-methyl-[1,2,4]triazolo[1,5-a]pyridin-6-yl)piperidin-1-yl)sulfonyl)-1-methyl-1H-pyrazole-5-carbonitrile]",7.07
3,"Cc1cc2ncnn2cc1C1CCN(S(=O)(=O)c2cnn(C)c2CC#N)CC1 [Compound 401, 2-(1-methyl-4-((4-(7-methyl-[1,2,4]triazolo[1,5-a]pyridin-6-yl)piperidin-1-yl)sulfonyl)-1H-pyrazol-5-yl)acetonitrile]",7.14
4,"O=S(=O)(c1cnn2ccccc12)N1CCC(c2cn3ncnc3cc2Cl)CC1 [Compound 544, 7-chloro-6-(1-(pyrazolo[1,5-a]pyridin-3-ylsulfonyl)piperidin-4-yl)-[1,2,4]triazolo[1,5-a]pyridine]",7.82
5,"Cn1ncc(S(=O)(=O)N2CCC(c3cn4ncnc4cc3Cl)CC2)c1CC#N [Compound 406, 2-(4-((4-(7-chloro-[1,2,4]triazoto[1,5-a]pyridin-6-yl)piperidin-1-yl)sulfonyl)-1-methyl-1H-pyrazol-5-yl)acetonitrile]",7.24
6,"Cn1cc(S(=O)(=O)N2CCC(c3cn4ncnc4cc3Cl)CC2)nn1 [Compound 557, 7-chloro-6-(1-((1-methyl-1H-1,2,3-triazol-4-yl)sulfonyl)piperidin-4-yl)-[1,2,4]triazolo[1,5-a]pyridine]",7.60
7,"COc1c(S(=O)(=O)N2CCC(c3cn4ncnc4cc3Cl)CC2)c(I)nn1C (single isomer, unassigned) [Compound 625, 7-Chloro-6-(1-((3-iodo-5-methoxy-1-methyl-1H-pyrazol-4-yl)sulfonyl)piperidin4-yl)-[1,2,4]triazolo[1,5-a]pyridine]",7.57
8,"[2H]C1([2H])CC(c2cn3ncnc3cc2C)CC([2H])([2H])N1S(=O)(=O)c1cnc(C)o1 [Compound 568, 2-methyl-5-((4-(7-methyl-[1,2,4]triazolo[1,5-a]pyridin-6-yl)piperidin-1-yl-2,2,6,6-d4)sulfonyl)oxazole]",7.33
9,"Cc1nc2n(c1C1CCN(S(=O)(=O)c3cnn(C)c3C(F)F)CC1)CCCC2 [Compound 465, 3-(1-((5-(difluoromethyl)-1-methyl-1H-pyrazol-4-yl)sulfonyl)piperidin-4-yl)-2-methyl-5,6,7,8-tetrahydroimidazo[1,2-a]pyridine]",5.16
10,"Cc1cc2nccn2nc1N1CCN(S(=O)(=O)c2cnc(C)n2C)CC1 [Compound 436, 6-(4-((1,2-dimethyl-1H-imidazol-5-yl)sulfonyl)piperazin-1-yl)-7-methylimidazo[1,2-b]pyridazine]",6.95
11,"Cc1ncc(S(=O)(=O)N2CCC(c3cn4ncnc4cc3F)CC2)o1 [Compound 507, 5-((4-(7-fluoro-[1,2,4]triazolo[1,5-a]pyridin-6-yl)piperidin-1-yl)sulfonyl)-2-methyloxazole]",5.51
12,"Cn1ncc(S(=O)(=O)N2CCC(c3cn4ncnc4cc3F)CC2)c1CN [Compound 530, (4-((4-(7-fluoro-[1,2,4]triazolo[1,5-a]pyridin-6-yl)piperidin-1-yl)sulfonyl)-1-methyl-1H-pyrazol-5-yl)methanamine]",< 5.00
13,"Cc1cc(C(F)(F)F)ncc1C1CCN(S(=O)(=O)c2cnc(C)n2C)CC1 [Compound 396, 5(1-((1,2-dimethyl-1H-imidazol-5-yl)sulfonyl)piperidin-4-yl)-4-methyl-2-(trifluoromethyl)pyridine]",< 5.00
14,"CCc1cc2ncnn2cc1C1CCN(S(=O)(=O)c2cnn(C)c2C#N)CC1 [Compound 407, 4-((4-(7-ethyl-[1,2,4]triazolo[1,5-a]pyridin-6-yl)piperidin-1-yl)sulfonyl)-1-methyl-1H-pyrazole-5-carbonitrile]",6.83
15,"Cn1cnnc1S(=O)(=O)N1CCC(c2cn3ncnc3cc2C(F)F)CC1 [Compound 517, 7-(difluoromethyl)-6-(1-((4-methyl-4H-1,2,4-triazol-3-yl)sulfonyl)piperidin-4-yl)-[1,2,4]triazolo[1,5-a]pyridine]",< 5.00
16,"Cc1cc2ncnn2nc1C1CCN(S(=O)(=O)c2cnc(Cl)s2)CC1 [Compound 536, 2-chloro-5-((4-(7-methyl-[1,2,4]triazolo[1,5-b]pyridazin-6-yl)piperidin-1-yl)sulfonyl)thiazole]",5.02
